This is an account of results in paper PMC12087874, “Biaryl Phosphates and Phosphonates as Selective Inhibitors of the Transcription Factor STAT4” (Angewandte Chemie (International Ed. in English), 2025).

The structures appear in SMILES notation.

One experiment addresses T1, STAT1 (Homo sapiens, UniProt P42224).
T1 sequence (P42224 1-750): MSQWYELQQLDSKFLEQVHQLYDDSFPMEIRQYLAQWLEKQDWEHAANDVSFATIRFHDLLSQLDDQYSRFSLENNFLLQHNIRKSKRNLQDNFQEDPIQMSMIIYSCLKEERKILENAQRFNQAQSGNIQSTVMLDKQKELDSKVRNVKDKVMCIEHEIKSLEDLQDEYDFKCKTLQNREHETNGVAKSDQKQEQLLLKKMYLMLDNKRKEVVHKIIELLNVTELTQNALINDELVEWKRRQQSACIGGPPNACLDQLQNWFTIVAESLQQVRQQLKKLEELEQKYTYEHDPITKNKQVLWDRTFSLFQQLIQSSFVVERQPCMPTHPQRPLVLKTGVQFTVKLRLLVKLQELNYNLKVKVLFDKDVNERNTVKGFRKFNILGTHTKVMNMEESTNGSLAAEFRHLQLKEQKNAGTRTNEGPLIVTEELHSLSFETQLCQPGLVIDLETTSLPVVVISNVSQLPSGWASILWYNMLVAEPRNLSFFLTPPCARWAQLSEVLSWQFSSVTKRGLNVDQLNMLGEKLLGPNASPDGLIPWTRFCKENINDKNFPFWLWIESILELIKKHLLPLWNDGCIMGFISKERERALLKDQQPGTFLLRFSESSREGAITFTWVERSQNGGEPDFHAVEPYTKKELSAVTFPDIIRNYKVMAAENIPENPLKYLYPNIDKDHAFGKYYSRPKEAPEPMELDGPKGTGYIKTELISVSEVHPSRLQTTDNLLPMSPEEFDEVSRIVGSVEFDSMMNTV
Description: Competitive fluorescence polarization (FP) assay, STAT1 SH2 domain. Format: binding. Particulars: for IC50: mean ± SD, n = 3; for Ki: tracer 5-carboxyfluorescein-GpYDKPHVL, Ki derived from IC50. Here is the method:
(§1) Fluorescence polarization assays
(§2) Competitive fluorescence polarization assays, which measure the abilities of test compounds (dissolved in DMSO) to displace a fluorescent-labeled peptide from the SH2 domain of a STAT protein, were carried out essentially as described. Proteins were used at the following final concentrations: 23 nM or 28 nM for STAT4; between 56 nM and 91 nM for STAT1; 107 nM or 110 nM for STAT3; between 131 nM and 177 nM for STAT5a; between 62 nM and 85 nM for STAT5b; and 101 nM or 106 nM for STAT6. These concentrations represent the approximate […]
(§3) dissociation constant for peptide binding of the respective protein batches used in the assays.
(§4) The following peptides were used: 5-carboxyfluorescein-GpYLPQNID-OH for STAT4; 5-carboxyfluorescein-GpYDKPHVL for STAT1; 5-carboxyfluorescein-GpYLPQTV-NH2 for STAT3; 5-carboxyfluorescein-GpYLVLDKW for STAT5a/b, and 5-carboxyfluorescein- […]
(§5) Gp[…]-OH for STAT6. All peptides were used at a final concentration of 10 nM. The buffer consisted of 10 mM Tris (pH 8.0), 50 mM NaCl, 1 mM EDTA, 1 mM DTT, 0 .1 % Nonidet P-40 substitute, and 2 % DMSO. After incubation of protein and test compound for 1 h at room temperature, the fluorescent -labeled peptide was added. Samples were transferred to 384 - well microtiter plates and fluorescence polarization was read after an additional 60 min of incubation time. Measurements were performed in triplicate. Percent binding was calculated based on a logarithmic curve fit using OriginPro 8G software. IC 50 values were converted to Ki-values via the published equation[3] using the corresponding Excel spread sheet […]
(§6) https://websites.umich.edu/~shaomengwanglab/software/calc_ki/index.html .
(§7) Error bars represent standard deviations. Ligand efficiencies (LE) were calculated by the formula LE = -1,37 x log Ki / number of non-hydrogen atoms.[4] […]

Another experiment deals with T2, STAT5a (Homo sapiens, UniProt P42229).
T2 sequence (P42229 1-794): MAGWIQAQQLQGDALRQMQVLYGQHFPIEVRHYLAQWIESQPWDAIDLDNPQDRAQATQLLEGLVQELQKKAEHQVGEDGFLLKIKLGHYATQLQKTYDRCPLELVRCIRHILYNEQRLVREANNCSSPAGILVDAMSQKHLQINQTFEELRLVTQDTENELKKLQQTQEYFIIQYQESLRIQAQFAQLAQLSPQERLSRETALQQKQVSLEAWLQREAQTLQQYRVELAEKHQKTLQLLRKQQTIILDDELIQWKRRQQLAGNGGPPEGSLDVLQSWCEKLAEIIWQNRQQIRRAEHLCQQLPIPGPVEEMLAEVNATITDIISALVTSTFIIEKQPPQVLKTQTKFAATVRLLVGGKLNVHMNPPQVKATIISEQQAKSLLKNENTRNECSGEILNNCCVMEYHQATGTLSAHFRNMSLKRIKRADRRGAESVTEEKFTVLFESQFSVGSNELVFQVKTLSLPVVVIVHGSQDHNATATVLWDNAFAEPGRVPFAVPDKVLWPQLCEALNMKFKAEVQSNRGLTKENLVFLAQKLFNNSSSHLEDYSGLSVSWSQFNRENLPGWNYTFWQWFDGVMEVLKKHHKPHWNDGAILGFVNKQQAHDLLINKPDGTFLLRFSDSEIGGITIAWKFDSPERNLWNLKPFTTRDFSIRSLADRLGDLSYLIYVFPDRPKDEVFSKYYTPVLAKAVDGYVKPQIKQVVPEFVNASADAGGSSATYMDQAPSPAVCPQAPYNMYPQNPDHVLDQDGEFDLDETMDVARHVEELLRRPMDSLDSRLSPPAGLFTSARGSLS
Description: Competitive fluorescence polarization (FP) assay, STAT5a SH2 domain. Format: binding. Particulars: for Ki: Ki derived from IC50; for IC50: mean ± SD, n = 3. The method, then: as §1, §2, §3, §4, §5, §6, §7

As for `O=P(O)(O)Oc1ccc(-c2ccc3ccccc3c2)cc1` [Compound 6g], on STAT1, the IC50 turned out to be 22 ± 2 µM and the inhibition constant Ki was found to be 11 ± 1 µM. At STAT5a, the affinity, expressed as Ki, was 27 ± 2 µM and the concentration for half-maximal inhibition (IC50) was determined as 55 ± 4 µM.
In the same order, the values of `O=P(O)(O)Oc1ccc(-c2ccccc2)cc1F` [Compound 6h] are 13 ± 1 µM, 6.3 ± 0.6 µM, 28 ± 1 µM and 57 ± 2 µM.
With `O=P(O)(O)C(F)(F)c1ccc(-c2ccc3ccccc3c2)cc1F` [Compound 8a], at STAT1, the IC50 was determined as 63 ± 3 µM and the Ki was determined as 36 ± 2 µM. At STAT5a, this compound had a Ki of 27 ± 1 µM and an IC50 of 54 ± 3 µM.
On the same counts, the results for `O=P(O)(O)Oc1ccc(-c2ccccc2)cc1` [Compound 1, para‐biphenyl phosphate] are 16 ± 3 µM, 8.1 ± 1.4 µM, 22 ± 2 µM and 42 ± 4 µM.
In the same order, the values of `Cc1cc(-c2ccc(C(F)(F)P(=O)(O)O)c(F)c2)cs1` [Compound 8k] are 48 ± 4 µM, 24 ± 2 µM, 39 ± 1 µM and 79 ± 2 µM.
For `O=P(O)(O)Oc1ccc(-c2ccc3ccccc3c2)cc1F` [Compound 6m], the concentration for half-maximal inhibition (IC50) on STAT1 was 7.8 ± 0.6 µM; at STAT5a it was 45 ± 2 µM. Also, the results for the inhibitory constant (Ki) at STAT1 and on STAT5a were 3.8 ± 0.3 µM and 22 ± 1 µM, respectively.
